Assay results reported in patent US20250152720A1, “NEW CARBOHYDRATE DERIVATIVES AS MIMETICS OF BLOOD GROUP A AND B ANTIGENS” (REMAB THERAPEUTICS SL, priority 2022, published 2025).

Experiments:
[1] = test system: purified human anti-A antibodies (IgG, IgM); conditions: IgG 0.075 ug/mL and IgM 0.185 ug/mL; glycoconjugate at 10, 100 and 400 μg/mL; versus Comparative-2; FIG. 10
Protocol: (§1) ELISA: Maxisorp 96-well flat-bottom plates (Thermo Scientific, Waltham, MA, US) were coated for 18 hours at 4° C. with 50 μL/well of 10 μg/mL of the following PAA-glycoconjugates (as disclosed above in Table 3): 1 (B natural type2) and 5 (A natural type2); in coating buffer (0.05 M carbonate-bicarbonate, pH 9.6). Wells coated only with 50 μL/well of 10 μg/mL of PAA were considered the background of each sample assessed. After coating, the plates were washed three times with 200 μL/well of 0.1% (v/v) PBST using an autowasher and blocked for 1 hour at 4° C. with 100 μL/well of 0.1% (v/v) PBST+1% (w/v) BSA. Washing steps were repeated.
The tubes were incubated for 18 hours at 4° C. and then a convenient dilution of inhibition mix to the ELISA plate (50 μL/vell) was added and incubated for 0.5 hours at 25° C. in a rocker.
(§2) After washing steps, plates were incubated for 0.5 hours at 25° C. […] The reaction was stopped with 50 μL/well of 3N HCl, and the resulting absorbance was registered at 490 nm using a microplate reader.
To quantify the antibody levels. […]
The percentage of removal (%) was calculated referred to the baseline condition (without inhibitor compound).

[2] = test system: purified human anti-B antibodies (IgG, IgM); conditions: IgG 0,095 ug/mL and IgM 0.045 ug/mL; increasing glycoconjugate concentrations (0-400 μg/mL); versus Comparative-1; FIG. 11
Protocol: as §1
The inhibition samples were prepared in separate tubes using a fixed concentration of anti-A or anti-B antibodies, and an increasing concentration of the following polylysine glycoconjugate inhibitors, prepared in Example 4 (0-400 μg/mL): • Comparative-1 (comprising natural B type-II antigen) • Example 4.1 (comprising analogue of Example 1.1) • Comparative-2 (comprising natural A type-II antigen) • Example 4.8 (comprising analogue of Example 1.8) […]
as §2
The percentage of removal (%) was calculated referred to the baseline condition (without inhibitor compound). […]

[3] = test system: purified anti-B antibodies binding to red blood cells (Group B); assay: Flow Cytometry inhibition of binding of purified anti-B antibodies to red blood cells (Group B) (Example 6.4); assay type: cell-based, human; conditions: anti-B 1 μg/mL
Protocol: The capacity to inhibit the binding of purified anti-B antibodies to red blood cells (Group B), measured by Flow Cytometry was tested. The Flow Cytometry assay was performed as follows: […] Afterwards, primary antibodies with the corresponding inhibitor were added. […] The samples were then incubated for 30 minutes at 37° C. (in the dark, mild horizontal shaking 30-40 rpm). Afterwards the samples were washed twice with PBS (centrifuged at 300 g. 3 minutes), and the supernatants were removed by aspiration. Then, 50 μL of the corresponding fluorochrome secondary anti-Ig antibody (7.5 μg/mL of goat anti-human IgG Alexa Fluor 647. Jackson Immunoresearch, West Grove, PA, USA, and 20 μg/mL of goat anti-human IgM C[…], Sigma-Aldrich, St. Louis, MO, USA) diluted in PBS were added to the RBC and incubated for 35 minutes at 37° C. (in the dark). The samples were washed twice with PBS (centrifuged at 300 g, 3 minutes), and the supernatants were removed by aspiration. Finally, the cells were resuspended in filtered PBS. Cells incubated with only PBS were used as a negative control for the experiment. Cells incubated only with secondary antibodies were considered background signals. Flow Cytometry analysis was performed on a Beckman Coulter Gallios Flow Cytometry analyzer using the blue (488 nm-22 mW) and red (635 nm-25 mW) solid-state laser as exciting source. Every single FACS determination recorded about 20,000 total events. Data was analyzed with KALUZA software (Beckman Coulter, CA, USA). The inhibitory capacity was expressed as a percentage of removal referred to the baseline condition (in ordinates).

With “Polylysine DP1000 Conjugate with Trisaccharide GlcNAcα1-3(Fucα1-2)Galβ (Example 1.8) (25%) [Example 4-8]” the “capacity to inhibit human purified anti-A antibodies (percentage of removal)” value [1] was “higher capacity to inhibit human purified anti-A antibodies than the comparator”.
For “Polyfysine DP1000 conjugate with tetrasaccharide Glcα1-3(Fucα1-2)Galβ1-4GlcNAcβ (Example 1.1) (25%) [Example 4.1]”, the “capacity to inhibit human purified anti-B antibodies (percentage of removal)” value [2] was “lower capacity to inhibit human purified anti-B antibodies than the natural comparator”, the “percentage of removal referred to the baseline condition, IgG” value ([3]; inhibitor 2.5 ug/mL) was 5.64% and the “percentage of removal referred to the baseline condition, IgM” value ([3]; inhibitor 2.5 ug/mL) was 6.35%.
“Polylysine DP1000 Conjugate with Galα1-3(Fucα1-2)Galβ1-4GlcNAcβB (Type2) Tetrasaccharide [Comparative-1, reference compound]” was tested, and the “percentage of removal referred to the baseline condition, IgG” value ([3]; inhibitor 0.25 ug/mL) was 15.12% and the “percentage of removal referred to the baseline condition, IgM” value ([3]; inhibitor 0.25 ug/mL) was 26.4%.
